Source: patent US8802597B2, “Herbicidal pyrimidines” (E I du Pont de Nemours and Company, priority 2003, dated 2014)

Key:
Format in all cases: in vivo
[1] = system: Surinam grass (Brachiaria decumbens); assay: Test B pre/postemergence
Outline: (§1)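 Under greenhouse conditions, seeded pots and young plants (1- to 4-leaf, 2 to 18 cm) were treated at the same time with test chemicals in a non-phytotoxic solvent mixture containing surfactant. Response was assessed visually after 13 to 15 days, from 0 (no effect) to 100 (complete control).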

[2] = system: barnyardgrass (Echinochloa crus-galli); assay: Test B pre/postemergence
Outline: as §1

[3] = system: cocklebur (Xanthium strumarium); assay: Test B pre/postemergence
Outline: as §1

[4] = system: corn (Zea mays); assay: Test B pre/postemergence
Outline: as §1

[5] = system: crabgrass (Digitaria sanguinalis); assay: Test B pre/postemergence
Outline: as §1

[6] = system: giant foxtail (Setaria faberii); assay: Test B pre/postemergence
Outline: as §1

[7] = system: lambsquarters (Chenopodium album); assay: Test B pre/postemergence
Outline: as §1

[8] = system: morningglory (Ipomoea coccinea); assay: Test B pre/postemergence
Outline: as §1

[9] = system: pigweed (Amaranthus retroflexus); assay: Test B pre/postemergence
Outline: as §1

[10] = system: velvetleaf (Abutilon theophrasti); assay: Test B pre/postemergence
Outline: as §1

[11] = system: wheat (Triticum aestivum); assay: Test B pre/postemergence
Outline: as §1

[12] = system: blackgrass (Alopecurus myosuroides); assay: Test B postemergence
Outline: as §1

[13] = system: wild oat (Avena fatua); assay: Test B postemergence
Outline: as §1

[14] = system: barnyardgrass (Echinochloa crus-galli); assay: Test B flooded paddy test; settings: Flood, 1000 g ai/ha; scale 0 (no effect) to 100 (complete control)
Outline: (§2)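 Plants were grown to the 2-leaf stage before treatment, then kept in a greenhouse for 13 to 15 days. Injury was rated visually against untreated controls on a 0 to 100 scale, where 0 is no effect and 100 is complete control.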

[15] = system: duck salad (Heteranthera limosa); assay: Test B flooded paddy test; settings: Flood, 1000 g ai/ha; scale 0 to 100
Outline: as §2

[16] = system: rice (Oryza sativa); assay: Test B flooded paddy test; settings: Flood, 1000 g ai/ha; scale 0 to 100
Outline: as §2

[17] = system: umbrella sedge (Cyperus difformis); assay: Test B flooded paddy test; settings: Flood, 1000 g ai/ha; scale 0 to 100
Outline: as §2

[18] = Postemergence, 125 g ai/ha, scale 0 to 100 (0 no effect, 100 complete control)
[19] = Postemergence, 500 g ai/ha, scale 0 to 100
[20] = Preemergence, 125 g ai/ha, scale 0 to 100 (0 no effect, 100 complete control)
[21] = Preemergence, 500 g ai/ha, scale 0 to 100 (0 no effect, 100 complete control)
[22] = 125 g ai/ha, scale 0 to 100 (0 no effect, 100 complete control)

For CCOC(=O)Cc1nc(C2CC2)nc(N=CN(C)C)c1Br [Compound 33], the “Surinam Grass plant response rating” value [1, 18] was 0, the “Plant response rating, Surinam Grass” value [1, 19] was 0 and the “Plant response rating, Surinam Grass” value [1, 20] was 0. For the same molecule, the “Surinam Grass plant response rating” value [1, 21] was 40, the “Barnyardgrass plant response rating” value [2, 18] was 0 and the “Plant response rating, Barnyardgrass” value [2, 19] was 20. For the same molecule, the “Plant response rating, Barnyardgrass” value [2, 20] was 20, the “Barnyardgrass plant response rating” value [2, 21] was 50 and the “Cocklebur plant response rating” value [3, 18] was 60. For the same molecule, the “Plant response rating, Cocklebur” value [3, 19] was 80, the “Plant response rating, Cocklebur” value [3, 20] was 80 and the “Cocklebur plant response rating” value [3, 21] was 90. For the same molecule, the “Corn plant response rating” value [4, 18] was 0, the “Plant response rating, Corn” value [4, 19] was 0 and the “Plant response rating, Corn” value [4, 20] was 10. For the same molecule, the “Corn plant response rating” value [4, 21] was 30, the “Crabgrass plant response rating” value [5, 18] was 10 and the “Plant response rating, Crabgrass” value [5, 19] was 20. The “Plant response rating, Crabgrass” value [5, 20] was 0, the “Crabgrass plant response rating” value [5, 21] was 50 and the “Foxtail, Giant plant response rating” value [6, 18] was 10. For the same molecule, the “Plant response rating, Foxtail, Giant” value [6, 19] was 40, the “Plant response rating, Foxtail, Giant” value [6, 20] was 0 and the “Foxtail, Giant plant response rating” value [6, 21] was 40. The “Lambsquarters plant response rating” value [7, 18] was 60, the “Plant response rating, Lambsquarters” value [7, 19] was 70 and the “Plant response rating, Lambsquarters” value [7, 20] was 90. The “Lambsquarters plant response rating” value [7, 21] was 100, the “Morningglory plant response rating” value [8, 18] was 40 and the “Plant response rating, Morningglory” value [8, 19] was 70. For the same molecule, the “Plant response rating, Morningglory” value [8, 20] was 0, the “Morningglory plant response rating” value [8, 21] was 90 and the “Pigweed plant response rating” value [9, 18] was 60. For the same molecule, the “Plant response rating, Pigweed” value [9, 19] was 80, the “Plant response rating, Pigweed” value [9, 20] was 80 and the “Pigweed plant response rating” value [9, 21] was 90. For the same molecule, the “Velvetleaf plant response rating” value [10, 18] was 40, the “Plant response rating, Velvetleaf” value [10, 19] was 50 and the “Plant response rating, Velvetleaf” value [10, 20] was 70. The “Velvetleaf plant response rating” value [10, 21] was 80, the “Wheat plant response rating” value [11, 18] was 20 and the “Plant response rating, Wheat” value [11, 19] was 20. The “Plant response rating, Wheat” value [11, 20] was 0, the “Wheat plant response rating” value [11, 21] was 50 and the “Blackgrass plant response rating” value [12, 22] was 40. For the same molecule, the “Plant response rating, Blackgrass” value ([12]; 500 g ai/ha, scale 0 to 100) was 40, the “Oat, Wild plant response rating” value [13, 22] was 20 and the “Plant response rating, Oat, Wild” value ([13]; 500 g ai/ha, scale 0 to 100) was 20. For the same molecule, the “Plant response rating, Barnyardgrass” value [14] was 0, the “Plant response rating, Ducksalad” value [15] was 0 and the “Plant response rating, Rice” value [16] was 0. For the same molecule, the “Plant response rating, Sedge, Umbrella” value [17] was 0.
